HELM strings list units from the 5' end as sugar, base in round brackets, then linkage (d deoxyribose, r ribose, m 2'-O-methyl, p phosphodiester). Strings are as the collection lists them; they lack the last nucleoside at the 3' end of the tested compound. [moe] = 2'-O-(2-methoxyethyl) (MOE); [sp] = phosphorothioate linkage; [m5C] = 5-methylcytosine
Target: GFAP
Experiment: mouse, dose not given
Settings: ASO

| Substance | 3 h FOB score [score 0-7] |
| --- | --- |
| RNA1{[moe](T)[sp].[moe](G)p.[moe](T)p.[moe](A)p.d(T)[sp].d(T)[sp].d(A)[sp].d(G)[sp].d(G)[sp].d(A)[sp].d(T)[sp].d([m5C])[sp].d([m5C])[sp].d([m5C])[sp].[moe](A)p.[moe](T)p.[moe]([m5C])p.[moe](T)[sp].[moe](A)}$$$$ (last 3' nucleoside missing) | 3 |
| RNA1{[moe](T)[sp].[moe](G)p.[moe]([m5C])p.[moe]([m5C])p.d(A)[sp].d(T)[sp].d(T)[sp].d(T)[sp].d(A)[sp].d(T)[sp].d([m5C])[sp].d(T)[sp].d(G)[sp].d(T)[sp].[moe](G)p.[moe]([m5C])p.[moe](T)p.[moe](T)[sp].[moe](T)}$$$$ (last 3' nucleoside missing) | 0 |
| RNA1{[moe]([m5C])[sp].[moe]([m5C])p.[moe](A)p.[moe](G)p.[moe](T)[sp].d(G)[sp].d([m5C])[sp].d([m5C])[sp].d([m5C])[sp].d(T)[sp].d(T)[sp].d([m5C])[sp].d([m5C])[sp].d([m5C])[sp].d(A)[sp].[moe]([m5C])p.[moe](G)p.[moe](A)[sp].[moe](G)}$$$$ (last 3' nucleoside missing) | 2 |
| RNA1{[moe](T)[sp].[moe](A)p.[moe](G)p.[moe](T)p.[moe]([m5C])p.d(A)[sp].d(G)[sp].d([m5C])[sp].d([m5C])[sp].d(T)[sp].d(G)[sp].d(G)[sp].d(T)[sp].d(T)[sp].d(A)[sp].[moe](G)p.[moe]([m5C])p.[moe]([m5C])[sp].[moe](T)}$$$$ (last 3' nucleoside missing) | 4 |
| RNA1{[moe](T)[sp].[moe]([m5C])p.[moe](A)p.[moe]([m5C])p.d(A)[sp].d(T)[sp].d(T)[sp].d([m5C])[sp].d(A)[sp].d([m5C])[sp].d(T)[sp].d(A)[sp].d(A)[sp].d(T)[sp].[moe](A)p.[moe](T)p.[moe](T)p.[moe](T)[sp].[moe](A)}$$$$ (last 3' nucleoside missing) | 0 |
| RNA1{[moe](T)[sp].[moe]([m5C])p.[moe](A)p.[moe]([m5C])p.[moe](A)p.d(T)[sp].d(T)[sp].d([m5C])[sp].d(A)[sp].d([m5C])[sp].d(T)[sp].d(A)[sp].d(A)[sp].d(T)[sp].d(A)[sp].[moe](T)p.[moe](T)p.[moe](T)[sp].[moe](A)}$$$$ (last 3' nucleoside missing) | 0 |
| RNA1{[moe](G)[sp].[moe](G)p.[moe]([m5C])p.[moe](A)p.[moe]([m5C])p.[moe](A)p.d(G)[sp].d(T)[sp].d(T)[sp].d([m5C])[sp].d([m5C])[sp].d([m5C])[sp].d(A)[sp].d(G)[sp].d(A)[sp].d(T)[sp].[moe](A)p.[moe]([m5C])[sp].[moe](T)}$$$$ (last 3' nucleoside missing) | 1 |
| RNA1{[moe](G)[sp].[moe](G)p.[moe](T)p.[moe](G)p.[moe]([m5C])[sp].d(T)[sp].d(T)[sp].d(T)[sp].d(T)[sp].d(G)[sp].d([m5C])[sp].d([m5C])[sp].d([m5C])[sp].d([m5C])[sp].d([m5C])[sp].[moe](T)p.[moe]([m5C])p.[moe](G)[sp].[moe](A)}$$$$ (last 3' nucleoside missing) | 1 |
| RNA1{[moe](G)[sp].[moe](T)p.[moe](G)p.[moe](A)p.d([m5C])[sp].d(T)[sp].d(A)[sp].d(T)[sp].d([m5C])[sp].d(T)[sp].d(A)[sp].d(G)[sp].d(G)[sp].d(A)[sp].[moe](T)p.[moe](T)p.[moe](T)p.[moe](G)[sp].[moe](G)}$$$$ (last 3' nucleoside missing) | 3 |
| RNA1{[moe]([m5C])[sp].[moe]([m5C])p.[moe](T)p.[moe](T)p.[moe](G)p.d(T)[sp].d(G)[sp].d(A)[sp].d(T)[sp].d(T)[sp].d(T)[sp].d(T)[sp].d([m5C])[sp].d([m5C])[sp].d([m5C])[sp].[moe]([m5C])p.[moe](G)p.[moe](T)[sp].[moe]([m5C])}$$$$ (last 3' nucleoside missing) | 0 |
| RNA1{[moe](G)[sp].[moe](G)p.[moe]([m5C])p.[moe](A)p.[moe](G)p.[moe](T)p.d(A)[sp].d(T)[sp].d(T)[sp].d(A)[sp].d([m5C])[sp].d([m5C])[sp].d(T)[sp].d([m5C])[sp].d(T)[sp].d(A)[sp].[moe]([m5C])p.[moe](T)[sp].[moe](A)}$$$$ (last 3' nucleoside missing) | 3 |
| RNA1{[moe](T)[sp].[moe](G)p.[moe](T)p.[moe]([m5C])p.[moe](T)[sp].d(T)[sp].d(T)[sp].d(A)[sp].d(T)[sp].d(T)[sp].d(T)[sp].d(T)[sp].d(T)[sp].d([m5C])[sp].d([m5C])[sp].[moe](T)p.[moe]([m5C])p.[moe](A)[sp].[moe](G)}$$$$ (last 3' nucleoside missing) | 2 |
| RNA1{[moe]([m5C])[sp].[moe](T)p.[moe](G)p.[moe]([m5C])p.[moe]([m5C])[sp].d(A)[sp].d(T)[sp].d(T)[sp].d(T)[sp].d(A)[sp].d(T)[sp].d([m5C])[sp].d(T)[sp].[moe](G)p.[moe](T)p.[moe](G)[sp].[moe]([m5C])}$$$$ (last 3' nucleoside missing) | 1 |
| RNA1{[moe](G)[sp].[moe](G)p.[moe](G)p.[moe]([m5C])p.[moe](A)[sp].d([m5C])[sp].d(T)[sp].d(A)[sp].d([m5C])[sp].d([m5C])[sp].d(T)[sp].d(A)[sp].d(G)[sp].d(A)[sp].d(A)[sp].[moe](T)p.[moe](A)p.[moe]([m5C])[sp].[moe](T)}$$$$ (last 3' nucleoside missing) | 5 |
| RNA1{[moe]([m5C])[sp].[moe](A)p.[moe](T)p.[moe](T)p.[moe]([m5C])[sp].d(A)[sp].d([m5C])[sp].d(T)[sp].d(A)[sp].d(A)[sp].d(T)[sp].d(A)[sp].d(T)[sp].[moe](T)p.[moe](T)p.[moe](A)[sp].[moe](A)}$$$$ (last 3' nucleoside missing) | 0 |
| RNA1{[moe](T)[sp].[moe](A)p.[moe]([m5C])p.[moe](A)p.[moe](T)[sp].d([m5C])[sp].d([m5C])[sp].d([m5C])[sp].d([m5C])[sp].d(T)[sp].d(T)[sp].d(T)[sp].d([m5C])[sp].d(T)[sp].d([m5C])[sp].[moe](T)p.[moe]([m5C])p.[moe]([m5C])[sp].[moe](T)}$$$$ (last 3' nucleoside missing) | 1 |
| RNA1{[moe](T)[sp].[moe](G)p.[moe](G)p.[moe](T)p.[moe](G)p.[moe]([m5C])p.d(T)[sp].d(T)[sp].d(T)[sp].d(T)[sp].d(G)[sp].d([m5C])[sp].d([m5C])[sp].d([m5C])[sp].d([m5C])[sp].d([m5C])[sp].[moe](T)p.[moe](G)[sp].[moe](T)}$$$$ (last 3' nucleoside missing) | 1 |
| RNA1{[moe](G)[sp].[moe](G)p.[moe](A)p.[moe](T)p.[moe]([m5C])[sp].d(T)[sp].d([m5C])[sp].d([m5C])[sp].d(T)[sp].d([m5C])[sp].d([m5C])[sp].d(T)[sp].d([m5C])[sp].d([m5C])[sp].d(A)[sp].[moe](G)p.[moe]([m5C])p.[moe](G)[sp].[moe](A)}$$$$ (last 3' nucleoside missing) | 0 |
| RNA1{[moe](A)[sp].[moe](T)p.[moe](T)p.[moe](T)p.d(G)[sp].d(G)[sp].d([m5C])[sp].d(A)[sp].d(G)[sp].d(T)[sp].d(A)[sp].d(T)[sp].d(T)[sp].d(A)[sp].[moe]([m5C])p.[moe]([m5C])p.[moe](T)p.[moe]([m5C])[sp].[moe](T)}$$$$ (last 3' nucleoside missing) | 3 |
| RNA1{[moe](A)[sp].[moe](T)p.[moe](T)p.[moe](T)p.[moe](G)p.[moe](T)p.d([m5C])[sp].d(T)[sp].d(T)[sp].d(T)[sp].d(A)[sp].d(T)[sp].d(T)[sp].d(T)[sp].d(T)[sp].d(T)[sp].[moe]([m5C])p.[moe]([m5C])[sp].[moe](T)}$$$$ (last 3' nucleoside missing) | 0 |
| RNA1{[moe]([m5C])[sp].[moe](A)p.[moe]([m5C])p.[moe](A)p.[moe](T)p.[moe](T)p.d([m5C])[sp].d(A)[sp].d([m5C])[sp].d(T)[sp].d(A)[sp].d(A)[sp].d(T)[sp].d(A)[sp].d(T)[sp].d(T)[sp].[moe](T)p.[moe](A)[sp].[moe](A)}$$$$ (last 3' nucleoside missing) | 0 |
| RNA1{[moe]([m5C])[sp].[moe](A)p.[moe](G)p.[moe]([m5C])p.d([m5C])[sp].d(T)[sp].d(G)[sp].d(G)[sp].d(T)[sp].d(T)[sp].d(A)[sp].d(G)[sp].d([m5C])[sp].d([m5C])[sp].[moe](T)p.[moe](T)p.[moe](T)p.[moe]([m5C])[sp].[moe](T)}$$$$ (last 3' nucleoside missing) | 4 |
| RNA1{[moe](T)[sp].[moe]([m5C])p.[moe]([m5C])p.[moe](T)p.[moe](G)[sp].d([m5C])[sp].d([m5C])[sp].d(T)[sp].d([m5C])[sp].d(A)[sp].d([m5C])[sp].d(A)[sp].d(T)[sp].d([m5C])[sp].d(A)[sp].[moe]([m5C])p.[moe](A)p.[moe](T)[sp].[moe]([m5C])}$$$$ (last 3' nucleoside missing) | 0 |
| RNA1{[moe](T)[sp].[moe](T)p.[moe](T)p.[moe](A)p.d(T)[sp].d(T)[sp].d(T)[sp].d(T)[sp].d(T)[sp].d([m5C])[sp].d([m5C])[sp].d(T)[sp].d([m5C])[sp].d(A)[sp].[moe](G)p.[moe]([m5C])p.[moe](G)p.[moe](A)[sp].[moe]([m5C])}$$$$ (last 3' nucleoside missing) | 0 |
| RNA1{[moe](A)[sp].[moe]([m5C])p.[moe](A)p.[moe](G)p.[moe](T)p.d(T)[sp].d([m5C])[sp].d([m5C])[sp].d([m5C])[sp].d(A)[sp].d(G)[sp].d(A)[sp].d(T)[sp].d(A)[sp].d([m5C])[sp].[moe](T)p.[moe]([m5C])p.[moe]([m5C])[sp].[moe](G)}$$$$ (last 3' nucleoside missing) | 2 |
| RNA1{[moe](G)[sp].[moe]([m5C])p.[moe]([m5C])p.[moe](A)p.[moe](A)[sp].d(A)[sp].d(T)[sp].d([m5C])[sp].d([m5C])[sp].d([m5C])[sp].d([m5C])[sp].d(T)[sp].d([m5C])[sp].d(T)[sp].d(T)[sp].[moe]([m5C])p.[moe]([m5C])p.[moe]([m5C])[sp].[moe](A)}$$$$ (last 3' nucleoside missing) | 0 |

From the OligoGym collection
